# PMC8395308 (International Journal of Molecular Sciences, 2021)
# Where “and” joins values, the source holds several entries; their conditions need not be identical. Equal entries are not always repeated. Entries after “also recorded” stand apart in the source; their conditions may differ. Structures can show the parent of a compound that is named as a salt.
# Biological target: receptor binding domain (HC fragment) of BoNT/A binding to the fourth luminal domain of SV2C (Clostridium botulinum, UniProt P0DPI0)
# Sequence (P0DPI0 872-1296 limits assumed): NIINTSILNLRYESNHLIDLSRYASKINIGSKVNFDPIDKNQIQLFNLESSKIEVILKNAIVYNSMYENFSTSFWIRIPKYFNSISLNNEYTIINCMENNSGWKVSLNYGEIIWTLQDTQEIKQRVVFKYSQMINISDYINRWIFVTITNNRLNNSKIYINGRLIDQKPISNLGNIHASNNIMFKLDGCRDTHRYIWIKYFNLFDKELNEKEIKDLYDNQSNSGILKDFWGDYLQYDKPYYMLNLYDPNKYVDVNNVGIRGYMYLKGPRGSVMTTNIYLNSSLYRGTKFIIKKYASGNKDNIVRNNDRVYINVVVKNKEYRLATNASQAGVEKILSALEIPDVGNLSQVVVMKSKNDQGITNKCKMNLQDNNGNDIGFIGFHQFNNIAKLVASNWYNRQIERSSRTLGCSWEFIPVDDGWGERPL
# Test: biochemical
# Set-up: species or system Mus musculus
# Settings: not given
Compound,Maximal Inhibition (%),Inhibition of the interaction between HC/A fragment and SV2C
CO/N=C(\C(=O)N[C@@H]1C(=O)N2C(C(=O)O)=C(COC(C)=O)CS[C@H]12)c1csc(N)n1 [Cefotaxime sodium],91%,
C[C@@](Cc1ccc(O)c(O)c1)(NN)C(=O)O [carbidopa],,failed to inhibit

# Same assay, conditions: IC50 (µM), TSP-RSP interaction inhibition
row,Compound,IC50
1,"NC(Cc1cc(O)c(O)cc1O)C(=O)O (racemic) [6-OHD, 6-Hydroxy-DL-DOPA]",1 µM
2,"O=C(O)C1=CC(=C(c2ccc(O)c(C(=O)O)c2)c2ccc(O)c(C(=O)O)c2)C=CC1=O [ATA, Aurintricarboxylic acid]",2 µM
3,"NC(CO)C(=O)NNCc1ccc(O)c(O)c1O (stereo not drawn) [Benserazide, Benserazide hydrochloride]",18 µM
4,CO/N=C(\C(=O)N[C@@H]1C(=O)N2C(C(=O)O)=C(COC(C)=O)CS[C@H]12)c1csc(N)n1 [Cefotaxime sodium],3 µM
5,CC(=O)OCC1=C(C(=O)O)N2C(=O)[C@@H](NC(=O)CCC[C@@H](N)C(=O)O)[C@H]2SC1 [Cephalosporin C zinc salt],27 µM
6,Nc1nc2[nH]c(=O)cnc2c(=O)[nH]1 [Isoxanthopterin],34 µM
7,"C=CC1=C(C)c2cc3[nH]c(cc4nc(cc5[nH]c(cc1n2)c(C)c5CCC(=O)O)C(CCC(=O)O)=C4C)c(C)c3C=C [PPIX, Protoporphyrin IX disodium]",84 µM
8,NCCOc1cc(C(=O)Nc2cc(OCCN)c3ccccc3n2)nc(C(=O)Nc2cc(OCCN)c3ccccc3n2)c1 [Pyridostatin trifluoroacetate salt],4 µM

# Same assay, conditions: read-out: Maximal Inhibition (%)
row,Compound,inhibition at 100 µM
1,"NC(Cc1cc(O)c(O)cc1O)C(=O)O (racemic) [6-OHD, 6-Hydroxy-DL-DOPA]",98%
2,"O=C(O)C1=CC(=C(c2ccc(O)c(C(=O)O)c2)c2ccc(O)c(C(=O)O)c2)C=CC1=O [ATA, Aurintricarboxylic acid]",100%
3,"NC(CO)C(=O)NNCc1ccc(O)c(O)c1O (stereo not drawn) [Benserazide, Benserazide hydrochloride]",95%
4,CO/N=C(\C(=O)N[C@@H]1C(=O)N2C(C(=O)O)=C(COC(C)=O)CS[C@H]12)c1csc(N)n1 [Cefotaxime sodium],~90%
5,CC(=O)OCC1=C(C(=O)O)N2C(=O)[C@@H](NC(=O)CCC[C@@H](N)C(=O)O)[C@H]2SC1 [Cephalosporin C zinc salt],~90%
6,Nc1nc2[nH]c(=O)cnc2c(=O)[nH]1 [Isoxanthopterin],68%
7,"C=CC1=C(C)c2cc3[nH]c(cc4nc(cc5[nH]c(cc1n2)c(C)c5CCC(=O)O)C(CCC(=O)O)=C4C)c(C)c3C=C [PPIX, Protoporphyrin IX disodium]",~80%
8,NCCOc1cc(C(=O)Nc2cc(OCCN)c3ccccc3n2)nc(C(=O)Nc2cc(OCCN)c3ccccc3n2)c1 [Pyridostatin trifluoroacetate salt],~80%

# Biological target: BoNT/A (Clostridium botulinum, UniProt P0DPI0)
# Sequence (P0DPI0 2-448 limits assumed): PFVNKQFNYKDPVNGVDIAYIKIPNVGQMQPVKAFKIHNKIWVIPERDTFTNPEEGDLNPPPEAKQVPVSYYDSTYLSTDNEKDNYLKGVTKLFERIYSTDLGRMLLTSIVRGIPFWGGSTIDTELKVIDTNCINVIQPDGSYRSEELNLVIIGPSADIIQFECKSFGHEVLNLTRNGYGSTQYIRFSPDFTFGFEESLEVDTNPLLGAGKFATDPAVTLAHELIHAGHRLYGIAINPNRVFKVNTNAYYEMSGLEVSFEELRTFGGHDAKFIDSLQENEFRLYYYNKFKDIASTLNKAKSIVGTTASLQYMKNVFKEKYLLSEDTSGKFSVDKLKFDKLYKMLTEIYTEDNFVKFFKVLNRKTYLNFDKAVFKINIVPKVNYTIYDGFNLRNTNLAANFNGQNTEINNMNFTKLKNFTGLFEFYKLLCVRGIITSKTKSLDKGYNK
# Sequence (P0DPI0 449-1296 limits assumed): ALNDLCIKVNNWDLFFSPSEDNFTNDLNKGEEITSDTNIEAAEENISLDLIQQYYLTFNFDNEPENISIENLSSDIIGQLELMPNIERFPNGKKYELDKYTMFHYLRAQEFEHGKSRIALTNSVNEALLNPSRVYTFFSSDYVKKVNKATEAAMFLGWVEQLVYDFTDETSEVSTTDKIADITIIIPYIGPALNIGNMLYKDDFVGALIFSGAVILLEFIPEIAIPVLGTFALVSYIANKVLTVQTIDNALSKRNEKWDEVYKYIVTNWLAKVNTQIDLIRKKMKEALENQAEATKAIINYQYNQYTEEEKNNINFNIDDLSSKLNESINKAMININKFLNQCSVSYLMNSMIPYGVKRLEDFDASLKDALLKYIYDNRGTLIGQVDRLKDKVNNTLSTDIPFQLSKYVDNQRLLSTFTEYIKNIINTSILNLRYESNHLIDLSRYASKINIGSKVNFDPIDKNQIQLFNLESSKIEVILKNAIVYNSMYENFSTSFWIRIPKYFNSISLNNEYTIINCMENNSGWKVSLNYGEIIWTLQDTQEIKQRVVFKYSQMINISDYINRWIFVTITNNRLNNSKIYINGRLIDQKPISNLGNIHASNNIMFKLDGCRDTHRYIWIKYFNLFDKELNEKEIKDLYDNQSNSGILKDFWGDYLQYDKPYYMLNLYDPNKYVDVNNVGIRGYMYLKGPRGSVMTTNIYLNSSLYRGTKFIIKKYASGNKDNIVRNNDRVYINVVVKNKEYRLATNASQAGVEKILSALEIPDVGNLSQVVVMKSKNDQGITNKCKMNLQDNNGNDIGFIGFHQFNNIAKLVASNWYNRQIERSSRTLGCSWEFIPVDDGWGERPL
# Test: not given
# Set-up: species or system CD-1 mice
# Settings: mouse, in vivo
Compound,median survival time (hr) treated,survival time of the nonsurviving treated animals,median survival time / TTD in the treated group
"NC(Cc1cc(O)c(O)cc1O)C(=O)O (racemic) [6-OHD, 6-Hydroxy-DL-DOPA]",28.7 h,28.7 h,
"O=C(O)C1=CC(=C(c2ccc(O)c(C(=O)O)c2)c2ccc(O)c(C(=O)O)c2)C=CC1=O [ATA, Aurintricarboxylic acid]",,96 h,
"NC(CO)C(=O)NNCc1ccc(O)c(O)c1O (stereo not drawn) [Benserazide, Benserazide hydrochloride]",29.8 h,,29.8 h
CO/N=C(\C(=O)N[C@@H]1C(=O)N2C(C(=O)O)=C(COC(C)=O)CS[C@H]12)c1csc(N)n1 [Cefotaxime sodium],21.0 h,,
Nc1nc2[nH]c(=O)cnc2c(=O)[nH]1 [Isoxanthopterin],26.67 h,,
"C=CC1=C(C)c2cc3[nH]c(cc4nc(cc5[nH]c(cc1n2)c(C)c5CCC(=O)O)C(CCC(=O)O)=C4C)c(C)c3C=C [PPIX, Protoporphyrin IX disodium]",26.0 h,,26.0 h
NCCOc1cc(C(=O)Nc2cc(OCCN)c3ccccc3n2)nc(C(=O)Nc2cc(OCCN)c3ccccc3n2)c1 [Pyridostatin trifluoroacetate salt],22.17 h,,

# Same assay, conditions: mouse, in vivo, ip
Compound,Survival (protection) of treated mice,Therapeutic effect versus solvent (log-rank test)
"NC(Cc1cc(O)c(O)cc1O)C(=O)O (racemic) [6-OHD, 6-Hydroxy-DL-DOPA]",33%,Significant beneficial therapeutic effects
"O=C(O)C1=CC(=C(c2ccc(O)c(C(=O)O)c2)c2ccc(O)c(C(=O)O)c2)C=CC1=O [ATA, Aurintricarboxylic acid]",92% and 91.6%,Significant beneficial therapeutic effects
"NC(CO)C(=O)NNCc1ccc(O)c(O)c1O (stereo not drawn) [Benserazide, Benserazide hydrochloride]",,Significant beneficial therapeutic effects
CO/N=C(\C(=O)N[C@@H]1C(=O)N2C(C(=O)O)=C(COC(C)=O)CS[C@H]12)c1csc(N)n1 [Cefotaxime sodium],,did not exert beneficial therapeutic effects
Nc1nc2[nH]c(=O)cnc2c(=O)[nH]1 [Isoxanthopterin],,did not exert beneficial therapeutic effects
"C=CC1=C(C)c2cc3[nH]c(cc4nc(cc5[nH]c(cc1n2)c(C)c5CCC(=O)O)C(CCC(=O)O)=C4C)c(C)c3C=C [PPIX, Protoporphyrin IX disodium]",,Significant beneficial therapeutic effects
NCCOc1cc(C(=O)Nc2cc(OCCN)c3ccccc3n2)nc(C(=O)Nc2cc(OCCN)c3ccccc3n2)c1 [Pyridostatin trifluoroacetate salt],,did not exert beneficial therapeutic effects

# System: BoNT/E
# Test: not given
# Set-up: species or system CD-1 mice
# Settings: mouse, in vivo
Compound,median TTD / median survival time of treated mice,median survival time (hr) treated
"NC(Cc1cc(O)c(O)cc1O)C(=O)O (racemic) [6-OHD, 6-Hydroxy-DL-DOPA]",9.8 h,9.8 h
"NC(CO)C(=O)NNCc1ccc(O)c(O)c1O (stereo not drawn) [Benserazide, Benserazide hydrochloride]",10.7 h,10.7 h
"C=CC1=C(C)c2cc3[nH]c(cc4nc(cc5[nH]c(cc1n2)c(C)c5CCC(=O)O)C(CCC(=O)O)=C4C)c(C)c3C=C [PPIX, Protoporphyrin IX disodium]",10.7 h,10.7 h

# Same assay, conditions: mouse, in vivo, ip
Compound,Survival of treated mice,Therapeutic effect versus solvent (log-rank test)
"O=C(O)C1=CC(=C(c2ccc(O)c(C(=O)O)c2)c2ccc(O)c(C(=O)O)c2)C=CC1=O [ATA, Aurintricarboxylic acid]",100%,fully protective; also recorded: completely protected
